In patent US20250312343A1, “COMBINATION THERAPIES USING PRMT5 INHIBITORS AND KRAS G12D INHIBITORS FOR THE TREATMENT OF CANCER” (MIRATI THERAPEUTICS, INC., priority 2024, published 2025):

Legend:
[1] = system: MTAP^DEL and KRAS^G12D pancreatic tumor xenograft SU8686 model; test: MRTX1719 + KRAS G12D inhibitor combination study, SU8686 xenograft; format: in vivo, nu/nu mice; settings: for Tumor volume: MRTX1133 30 mg/kg BID IP, n=5/group, method gives mm^3
Protocol: (§1) Immunodeficient female mice were implanted with human cancer models harboring homozygous deletion of the MTAP gene (MTAP^DEL) and a KRAS^G12D mutation. Mouse health was monitored daily, and caliper measurements began when tumors were palpable. Tumor volume measurements were determined utilizing the formula 0.5×L×W2 in which L refers to length and W refers to width of each tumor. When tumors reached approximately 200-300 mm^3, animals were randomized to receive A) vehicle, B) a PRMT5 inhibitor administered orally (PO) formulated in 0.5% methylcellulose (4000 cps)/0.2% Tween80 in water, C) KRAS G12D inhibitor administered via intraperitoneal injection (IP) formulated in 10% Captisol in 50 mM Citrate buffer pH 5.0, or D) the PRMT5 inhibitor and KRAS G12D inhibitor. Tumor volumes were measured twice a week (n=5/treatment group). Tumor Growth Inhibition (% TGI) was calculated when the average final treated tumor volume was greater than initial treated tumor volume using the formula: (1-(Final Drug Treated Tumor Volume—Initial Drug Treated Tumor Volume)/(Final Vehicle Treated Tumor Volume -Initial Vehicle Treated Tumor Volume))*100. Percent Regression (% Regression) was calculated when the average tumor volume of final treated tumors was less than initial treated tumor volume using the formula: (−100%)*(1−((Final treated tumor volume)/(Initial treated tumor volume)).
(§2) This example was conducted in immunodeficient female nu/nu mice that were implanted with 5×10^6 SU8686 pancreatic cancer cells in 50% Matrigel. according to the study procedure described above. The PRMT5 inhibitor was MRTX1719 administered at 100 mg/kg once a day (QD). MRTX1719 used is as described herein.
(§3) The KRAS^G12D inhibitor used in this example was MRTX1133 administered at 30 mg/kg twice a day (BID). MRTX1133 used is as described herein.

[2] = system: MTAP^DEL and KRAS^G12D pancreatic tumor xenograft KP4 model; test: MRTX1719 + KRAS G12D inhibitor combination study, KP4 xenograft; format: in vivo, nu/nu mice; settings: MRTX1133 30 mg/kg BID IP; for Tumor volume: n=5/group, method gives mm^3, in mm³; for % TGI (Tumor Growth Inhibition): final vs initial treated tumor volume relative to vehicle, MRTX1719 100 mg/kg QD PO
Protocol: as §1
as §2, with “5×10^6 KP4” for “5×10^6 SU8686”, “is a” for “is as”
as §3

[3] = Study Day 2, MRTX1719 100 mg/kg QD PO
[4] = Study Day 7, MRTX1719 100 mg/kg QD PO
[5] = Study Day 9, MRTX1719 100 mg/kg QD PO
[6] = Study Day 13, MRTX1719 100 mg/kg QD PO
[7] = Study Day 16, MRTX1719 100 mg/kg QD PO
[8] = Study Day 20, MRTX1719 100 mg/kg QD PO
[9] = Study Day 23, MRTX1719 100 mg/kg QD PO
[10] = Study Day 28, MRTX1719 100 mg/kg QD PO
[11] = Study Day 31, MRTX1719 100 mg/kg QD PO
[12] = Study Day 34, MRTX1719 100 mg/kg QD PO
[13] = Study Day 37, MRTX1719 100 mg/kg QD PO
[14] = Study Day 41, MRTX1719 100 mg/kg QD PO
[15] = Study Day 44, MRTX1719 100 mg/kg QD PO
[16] = Study Day −1, MRTX1719 100 mg/kg QD PO
[17] = Study Day 0, MRTX1719 100 mg/kg QD PO
[18] = Study Day 3, MRTX1719 100 mg/kg QD PO
[19] = Study Day 10, MRTX1719 100 mg/kg QD PO
[20] = Study Day 14, MRTX1719 100 mg/kg QD PO
[21] = Study Day 17, MRTX1719 100 mg/kg QD PO
[22] = Study Day 21, MRTX1719 100 mg/kg QD PO
[23] = Study Day 24, MRTX1719 100 mg/kg QD PO

| Structure (SMILES) | Tumor volume [1, 3] | Tumor volume [1, 4] | Tumor volume [1, 5] | Tumor volume [1, 6] | Tumor volume [1, 7] | Tumor volume [1, 8] | Tumor volume [1, 9] | Tumor volume [1, 10] | Tumor volume [1, 11] | Tumor volume [1, 12] | Tumor volume [1, 13] | Tumor volume [1, 14] | Tumor volume [1, 15] | Tumor volume [1, 16] | Tumor volume [2, 17] | Tumor volume [2, 18] | Tumor volume [2, 4] | Tumor volume [2, 19] | Tumor volume [2, 20] | Tumor volume [2, 21] | also measured |
| --- | --- | --- | --- | --- | --- | --- | --- | --- | --- | --- | --- | --- | --- | --- | --- | --- | --- | --- | --- | --- | --- |
| C#Cc1c(F)ccc2cc(O)cc(-c3ncc4c(N5CC6CCC(C5)N6)nc(OC[C@@]56CCCN5C[C@H](F)C6)nc4c3F)c12 [MRTX1133] | 180 mm³ | 143 mm³ | 142 mm³ | 146 mm³ | 145 mm³ | 164 mm³ | 166 mm³ | 151 mm³ | 183 mm³ | 191 mm³ | 209 mm³ | 213 mm³ | 204 mm³ | 212 mm³ | 276 | 202 | 132 | 99 | 80 | 91 | % Regression ([1]; final vs initial treated tumor volume, MRTX1133 30 mg/kg BID IP alone or with MRTX1719 100 mg/kg QD PO): −4.2%; Tumor volume [2, 22]: 144; Tumor volume [2, 23]: 250; Tumor volume [2, 10]: 518; Tumor volume [2, 11]: 766; Tumor volume ([2]; Study Day 35, MRTX1719 100 mg/kg QD PO): 1064; % TGI (Tumor Growth Inhibition) [2]: 53.8% |
| Cn1ncc(-c2ccc3c(=O)[nH]nc(CN)c3c2)c1-c1c(F)c(Cl)cc(OC2CC2)c1C#N [MRTX1719] | 255 mm³ | 317 mm³ | 369 mm³ | 415 mm³ | 464 mm³ | 467 mm³ | 419 mm³ | 396 mm³ | 373 mm³ | 372 mm³ | 362 mm³ | 356 mm³ | 337 mm³ | 200 mm³ | 277 | 431 | 616 | 716 | 772 | 887 | % TGI (Tumor Growth Inhibition) ([1]; final vs initial treated tumor volume relative to vehicle, MRTX1719 100 mg/kg QD PO): 88.3%; Tumor volume [2, 22]: 1222; Tumor volume [2, 23]: 1487; % TGI (Tumor Growth Inhibition) [2]: 29.1% |
